Values of other authors in patent US8414913B2, “Edible compositions for lowering cholesterol” (Raisio Benecol Oy, priority 2001, dated 2013).

Test system: total and low density lipoprotein (LDL) cholesterol level
Conditions: diets with high β-glucan content; Ripsin et al. 1992, Braaten et al. 1994

## β-glucan
  lowering of total and LDL cholesterol level: 8-12%
